Values of other authors as cited in patent US20030216635A1, “Method and system for monitoring pancreatic pathologies” (priority 2000, published 2003).

Details: value substituted into equation 1.3; set up at 4.7 Tesla

## O=C([O-])CN(CCN(CC(=O)[O-])CC(=O)O)CCN(CC(=O)[O-])CC(=O)O.[Gd+3] [GdDTPA, gadolinium-diethylenetriamine-pentaacetic-acid]
  Relaxivity constant R: 4.3 mM^−1 sec ^−1
